# Test results as given in PMC7129073 (Clinical Microbiology and Infection, 2015).
# Tests used:
# E. coli [1] = test: Resistance of UTI isolates of renal transplant recipients; format: cell-based, Escherichia coli; settings: 75 isolates
# Klebsiella = test: SMART 2003 Europe, microdilution; format: cell-based, Klebsiella spp.; settings: 341 isolates
# Shigella spp. = test: Disk diffusion, stool isolates Tehran; format: cell-based; settings: 96 isolates
# N.gonorrhoeae = test: microbe, parasite or virus in culture; format: cell-based; settings: Neisseria gonorrhoeae
# [2] = tested on: inducible Enterobacteriaceae; test: SMART 2003, intraabdominal isolates; format: cell-based
# Acinetobacter = test: Disk diffusion; format: cell-based; settings: 37 isolates selected as resistant to beta-lactams
# Enterobacteriaceae = test: SMART 2003 Europe, microdilution; format: cell-based; settings: 1948 isolates
# [3] = tested on: viridans group streptococci (VGS); test: MIC; format: cell-based
# S. pneumoniae = test: PROTEKT Italy, NCCLS microdilution; format: cell-based, Streptococcus pneumoniae
# Nocardia spp. = test: E-test on Mueller Hinton agar, 81 clinical isolates; format: cell-based; settings: Nocardia
# B. fragilis = test: NCCLS broth microdilution, beta-lactamase positive isolates; format: cell-based, Bacteroides fragilis; settings: 48 hr
# B. ovatus = test: as above; format: cell-based, Bacteroides ovatus; settings: 48 hr
# B. vulgatus = test: as above; format: cell-based, Bacteroides vulgatus; settings: 48 hr
# B. thetaiotaomicron = test: as above; format: cell-based, Bacteroides thetaiotaomicron; settings: 48 hr
# B. distasonis = test: as above; format: cell-based, Bacteroides distasonis; settings: 48 hr
# K. pneumoniae [4] = test: MIC; format: cell-based, Klebsiella pneumoniae; settings: Klebsiella pneumoniae
# K. oxytoca = test: E-test susceptibility; format: cell-based, Klebsiella oxytoca
# Pseudomonas spp. = test: MIC; format: cell-based
# Gram-negative rods = test: Microscan MIC, blood culture isolates; format: cell-based
# Pseudomonas aeruginosa = test: MIC, strains from cystic fibrosis patients; settings: by MIC
# E. coli [5] = test: E-test susceptibility; format: cell-based, Escherichia coli
# E. coli [6] = test: SMART 2003 Europe, microdilution; format: cell-based, Escherichia coli; settings: 1106 isolates
# K. pneumoniae [7] = test: E-test susceptibility; format: cell-based, Klebsiella pneumoniae
# N. farcinica strain = test: E-test on Mueller-Hinton agar; format: cell-based; settings: Nocardia farcinica
compound,measurement,setting,value
CO/N=C(\C(=O)N[C@@H]1C(=O)N2C(C(=O)O)=C(CSc3nc(=O)c(=O)[nH]n3C)CS[C@H]12)c1csc(N)n1 [ceftriaxone],rate of resistance,E. coli [1],1%
same,per cent susceptible,Klebsiella,89%
same,sensitive,Shigella spp.,100%
same,MIC,N.gonorrhoeae; strain 76mu6,0.12 µg/mL
same,MIC,N.gonorrhoeae; strain 92mu6,0.015 µg/mL
same,MIC,N.gonorrhoeae; strain 92mu13,0.008 µg/mL
same,% susceptible,[2]; A/P (N = 200),60%
same,% susceptible,[2]; EU (N = 354),79%
same,% susceptible,[2]; LA (N=113),71%
same,% susceptible,[2]; NA (N = 163),75%
same,resistant isolates,Acinetobacter,75.7%
same,per cent susceptible,Enterobacteriaceae,91%
same,MIC50,[3],0.06 µg/mL
same,MIC90,[3],0.5 µg/mL
same,susceptible,S. pneumoniae; year 1: 2002,88.9%
same,susceptible,S. pneumoniae; year 2: 2003,93.7%
same,MIC50,Nocardia spp.,8 µg/mL
same,MIC90,Nocardia spp.,> 256 µg/mL
"C[C@]1(Cn2ccnn2)[C@H](C(=O)O)N2C(=O)C[C@H]2S1(=O)=O [Tz, Tazobactam]",isolates inhibited at 8 mg/L,B. fragilis,97%
same,isolates inhibited at 16 mg/L,B. fragilis,98%
same,isolates inhibited at =/< 4 mg/L,B. fragilis,86%
same,isolates inhibited at 8 mg/L,B. ovatus,56%
same,isolates inhibited at 16 mg/L,B. ovatus,86%
same,isolates inhibited at =/< 4 mg/L,B. ovatus,23%
same,isolates inhibited at 8 mg/L,B. vulgatus,83%
same,isolates inhibited at 16 mg/L,B. vulgatus,100%
same,isolates inhibited at =/< 4 mg/L,B. vulgatus,50%
same,isolates inhibited at 16 mg/L,B. thetaiotaomicron,100%
same,isolates inhibited at =/< 4 mg/L,B. thetaiotaomicron,42%
same,isolates inhibited at 8 mg/L,B. distasonis,50%
same,isolates inhibited at 16 mg/L,B. distasonis,100%
same,isolates inhibited at =/< 4 mg/L,B. distasonis,25%
Ampicillin/ Sulbactam [A/S],rate of resistance,E. coli [1],34%
same,resistant isolates,Acinetobacter,10.8%
C[C@@H](O)[C@H]1C(=O)N2C(C(=O)O)=C(S[C@@H]3CN[C@H](C(=O)N(C)C)C3)[C@H](C)[C@H]12 [meropenem],MIC,K. pneumoniae [4],4 to 16 µg/mL
same,Susceptible isolates,K. oxytoca; ICU,100/100%
same,Susceptible isolates,K. oxytoca; non ICU,100/100%
same,susceptible strains,Pseudomonas spp.,98%
same,susceptible strains (n/N),Gram-negative rods,16/16
same,Susceptible isolates,Pseudomonas aeruginosa,96%
same,per cent susceptible,Klebsiella,99%
same,Susceptible isolates,"E. coli [5]; ICU, SRGA breakpoints, tigecycline tentative S ≤2 μg/ml",100%
same,Susceptible isolates,E. coli [5]; non ICU,99%
same,per cent susceptible,E. coli [6],>99%
same,% susceptible,[2]; A/P (N = 200),100%
same,% susceptible,[2]; EU (N = 354),99%
same,% susceptible,[2]; LA (N=113),98%
same,% susceptible,[2]; NA (N = 163),99%
same,resistant isolates,Acinetobacter,0.0%
same,per cent susceptible,Enterobacteriaceae,>99%
same,Susceptible isolates,K. pneumoniae [7]; ICU,100/100%
same,Susceptible isolates,K. pneumoniae [7]; non ICU,100/100%
same,MIC,N. farcinica strain,> 32 µg/mL
